# Results taken from a melting point compilation (Tetko et al.; mined from patent text by program, amines drawn as free bases though some values may be those of a salt).
row,Structure (SMILES),melting point [°C]
1,COC(=O)NN[C@@H]1c2cc(C#N)ccc2OC(C)(C)[C@H]1O (relative stereo),174 to 175
2,CCOC(=O)NC(=S)Nc1ccc(Br)cn1,159 to 161
3,c1cnc2c(c1)ncn2CCCCc1nnnn1C1CCCCC1,94 to 95
4,CCOC(=O)c1ncn2c1cnc1ccccc12,195 to 196
5,CS(=O)(=O)Nc1ccc(-c2ccc(C(=O)NCCCCN3CCC(c4ccc5c(c4OCCO)CCCC5)CC3)cc2)cc1,216
6,C=CCN(CC=C)c1nc(NC(=O)C=C)n2oc(=O)nc2n1,157 to 161
7,CC(=O)c1cc(CS(C)(=O)=O)ccc1O,142 to 144
8,O=C1N=NC(=O)c2c1[nH]c1cc(Cl)ccc21,> 250
9,CCn1cc(Cl)c2cnc(NC(=O)c3ccc([C@](C)(O)CO)cc3)cc21,223 to 224
10,NC(=O)c1ccnc(-c2csc(N=C(N)N)n2)c1,169 to 171
11,CN(C)CCNC(=O)c1ccc(-c2ccc3nnn(Cc4ccc5ncccc5c4)c3n2)cc1F,122 to 125
12,CSc1ncnc(SC)c1NC(=O)CN1CCN(CCSc2nc3ccccc3o2)CC1,171 to 172
13,CCN(CC)CCCNC(=O)Cn1c(-c2ccc(Cl)cc2)nc2cccnc21,172 to 174
14,O=C1OCCCCOC(=O)c2ccc(cc2)-c2ccc1cc2,266
15,CCOCc1nc2c(cc(C)n3nnnc23)n1CC(C)C,158 to 160
16,CC1Cc2c(N3C(=O)C4=C(CCCC4)C3=O)ccc(Cl)c2O1 (configuration not stated),134 to 137
17,CN(C)CCCOc1ccc(C=CC(=O)N2CCc3c([nH]c4ccccc34)C2c2ccc3c(c2)CCO3)cc1 (configuration not stated),186
18,CCC(C(C)=CC(CNC(=O)Cc1cccnc1)=NO)[N+](=O)[O-] (configuration not stated),140 to 141
19,CSC[C@@H](NC(=O)OCc1ccccc1)[C@@H]1COC(C)(C)O1,70 to 71
20,CC(C)N(C(=O)C(Cc1ccc(C=O)cc1)NC(=O)OC(C)(C)C)C(C)C (configuration not stated),152
21,N#CNc1ccc2c3c(cccc13)CC2,163 to 165
22,COC(=O)NC1=NCC(c2ccc(OC(C)C)cc2)N1C (configuration not stated),135 to 138
23,CC(=O)OC1=C(c2ccccc2)C(=O)N(C(C)(C)c2ccccc2)C1,149 to 150
24,CC1=C(CN(C)C(=O)N2CCN(C(N)=O)CC2)C(C)(C)CCC1,140

row,Structure (SMILES),melting point [°C]
1,COc1ccc(CSc2ccncc2)c2c1OCC2C (configuration not stated),110 to 112
2,O=[N+]([O-])c1cc(C(F)(F)F)ccc1N1CCc2ccccc21,89 to 92
3,CN(C(=O)c1ccc2nonc2c1)[C@H]1CC[C@@H](C#N)CC1,180 to 181
4,Cc1nc2c(s1)-c1nc(Nc3cccc([N+](=O)[O-])c3)ncc1CC2,227 to 228
5,CC(Oc1cc(Cl)ccc1Cl)C(=O)OCc1ccccc1 (configuration not stated),56 to 58
6,COC(=O)CCC1CCC(=O)N1 (configuration not stated),52 to 53
7,COc1ccc(C=CC(=O)c2c(OC)cc(OC)cc2OC(=O)c2ccccc2)cc1,134
8,O=Cc1cccc2oc3c(c12)CCCC3,55 to 57
9,CCc1nc2c(C)cc(C)nc2n1Cc1ccc2nc(-c3ccccc3NS(=O)(=O)C(F)(F)F)ccc2c1,252
10,CCOc1ccc2c(S(=O)(=O)c3ccc(OCc4ccccc4)cc3)c(C(C)C)cn2c1,153
11,CCCCc1nn(-c2cc(C(=O)OC)ccc2Cl)c(=O)n1Cc1ccc(-c2ccccc2S(=O)(=O)NC(C)(C)C)cc1,65 to 67
12,N#Cc1ccc(CC(NC(=O)C(Cc2ccccc2)S(=O)(=O)Nc2ccc3ccccc3c2)C(=O)N2CCCCC2)cc1 (configuration not stated),210
13,CC(C)(C)OC(=O)N1CCCN(c2ccnc3sc(C(N)=O)c(N)c23)CC1,177 to 178
14,O=c1[nH]ccc2c1c(O)nc1cc(Cl)ccc12,340 to 342
15,CCCCN(CCCC)c1ccc(C=C(S(C)(=O)=O)S(C)(=O)=O)cc1,114 to 115
16,CS(=O)(=O)c1nc(Cl)c(Cc2ccccc2)c(N2CCCC2)n1,136 to 138
17,Cc1cc(-c2nc3sc4ccccc4n3c2CC(=O)O)c(C)s1,249 to 250
18,Cc1c(NC(=O)CC(C)(C)C)cc2c(c1C)OC(C)(C)C2Cc1ccc(C(C)C)cc1 (configuration not stated),130 to 132
19,NC(=O)CSC(c1ccccc1)c1ccccc1,104 to 110
20,Cn1c(=O)cc(-c2cccc(Cl)c2)c2cc(C(=O)c3ccoc3)ccc21,192
21,Fc1ccc(-c2[nH]cc(C3CCN4CCCC4C3)c2-c2ccncc2)cc1 (configuration not stated),263 to 265
22,O=C(O)C(=O)CC(=O)c1ccc(Cc2ccc(Cl)c(Cl)c2)cc1,133 to 140
23,CC(C)CCCOC1CCC2C3C(=O)C=C4CC(O[Si](C)(C)C(C)(C)C)CCC4(C)C3CCC12C (configuration not stated),143 to 145
24,CC(=O)Nc1ccccc1-n1cc2c(c1-c1ccccc1)c(=O)n(C)c(=O)n2C,> 250

row,Structure (SMILES),melting point [°C]
1,CS(=O)(=O)c1ccc(-c2cccn2-c2ccccc2)cc1,140 to 142
2,CCCC(=O)c1cc2nc(C=O)n(C)c2cc1C,107 to 108
3,O=C(O)c1c[nH]c(=S)n1C1CCc2c(F)cc(F)cc2C1 (configuration not stated),250 to 252
4,COc1cc2c(cc1O)CCN(Cc1cccc(Oc3ccccc3)c1)C2,139 to 140
5,O=C(Nc1ccccc1C(F)(F)F)c1ccccc1,146
6,O=C(CNC(=O)c1ccccc1C(=O)O)Nc1ccc(C(=O)C[N+](=O)[O-])c(Cl)c1,206 to 209
7,CCOC(=O)c1cc(C(Br)Br)cnc1Br,88 to 89
8,CN1CCN(C(=O)Nc2cc(Br)ccc2N2CCc3cc(Br)ccc32)CC1,118 to 120
9,CC(=O)OC1CC2(C)C(Sc3ccccc3)=CCC2C2CCC3=CC(=O)C=CC3(C)C12F (configuration not stated),229 to 231
10,COc1ccccc1C(=Cc1ccccc1[N+](=O)[O-])C(=O)O,217 to 219
11,Cc1noc(-c2c(C)ncn2C)n1,95
12,CC1CCC(c2ccc(OCC(=O)O)c(Cl)c2Cl)=CC1=O (configuration not stated),183 to 185
13,Oc1cnn(-c2ccc(Cl)cc2)c1,127 to 128
14,CCc1cccc(C)c1CNc1cc(C(=O)O)nc2c1nc(C)n2C,235 to 238
15,CC1(C)C(=O)Oc2cc([N+](=O)[O-])c3ccc(Cn4cncn4)cc3c21,150 to 152
16,CCOc1c(C(=O)OCC(C)(C)C(O)C(C)(C)C)oc2ccc(OC)cc12 (configuration not stated),100 to 101
17,CC(=O)Nc1ccccc1CN1CCC(CCC(=O)c2ccc(Nc3ncnc4c3CCC4)cc2)CC1,219 to 222
18,CCNC(=O)n1nc(Oc2c(Cl)cc(C(F)(F)F)cc2Cl)cc1CC,86 to 89
19,O=C(NCCc1ccn(-c2cc3nc(C(=O)O)c(=O)[nH]c3cc2F)c1)Nc1ccc(C(=O)O)cc1,> 300
20,COC(=O)NCc1nc2ccn(Cc3ccc(F)cc3)cc-2n1,179
21,COc1ccccc1OCCCCCOc1ccc(C(=N)N)cc1,96 to 98
22,COC(=O)C(=NO)c1cc(Cl)nc(NC=O)n1,110 to 112
23,CCCC(O)(CCC)c1c2c(nn1C)N(c1c(C)cc(C)cc1Cl)CCC2,129 to 130
24,COn1cc(C#N)c(C#N)c1-c1ccc(Cl)cc1,126 to 127
